Experimental findings from US10323038B2, “Pyrazole compounds and methods of making and using same” (ABIDE THERAPEUTICS, INC., priority 2015, dated 2019) are described below.

A value given as a limit tells only on which side of the number the result lay.

In one assay the target is MAGL (Mus musculus (Mouse), UniProt O35678). Kind of assay: In vitro competitive activity-based protein profiling, MAGL (mouse). The conditions noted are these: for inhibition at 1 µM: read-out: MAGL % inh. 1 μM (mouse). The assay is classed as biochemical. As for the experimental part: (§1) In Vitro Competitive Activity-Based Protein Profiling.
Chain of MAGL (O35678 whole entry): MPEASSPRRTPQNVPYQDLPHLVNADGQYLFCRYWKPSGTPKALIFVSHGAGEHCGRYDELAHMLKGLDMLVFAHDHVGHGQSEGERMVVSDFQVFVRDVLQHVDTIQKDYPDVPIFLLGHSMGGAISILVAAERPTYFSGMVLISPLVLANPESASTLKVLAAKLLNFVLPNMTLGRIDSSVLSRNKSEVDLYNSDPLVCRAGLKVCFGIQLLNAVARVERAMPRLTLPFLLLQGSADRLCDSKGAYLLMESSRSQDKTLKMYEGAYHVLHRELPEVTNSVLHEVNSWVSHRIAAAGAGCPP
(§2) Proteomes (mouse brain membrane fraction or cell lysates for mouse assays; human prefrontal cortex or cell membrane fractions for human assays) (50 μL, 1.0 mg/mL total protein concentration) were preincubated with varying concentrations of inhibitors at 37° C. After 30 min, FP—Rh or HT-01 (1.0 μL, 50 μM in DMSO) was added and the mixture was incubated for another 30 min at 37° C. Reactions were quenched with SDS loading buffer (15 μL-4×) and run on SDS-PAGE. Following gel imaging, serine hydrolase activity was determined by measuring fluorescent intensity of gel bands corresponding to MAGL and FAAH using ImageJ 1.43u software.

The target of a further assay is FAAH (Mus musculus (Mouse), UniProt O08914). Kind of assay: In vitro competitive activity-based protein profiling, FAAH (mouse). The assay is classed as biochemical. The conditions noted are these: for inhibition at 1 µM: read-out: FAAH % inh. 1 μM (mouse). The procedure:
as §1, §2

Chain of FAAH (O08914 whole entry): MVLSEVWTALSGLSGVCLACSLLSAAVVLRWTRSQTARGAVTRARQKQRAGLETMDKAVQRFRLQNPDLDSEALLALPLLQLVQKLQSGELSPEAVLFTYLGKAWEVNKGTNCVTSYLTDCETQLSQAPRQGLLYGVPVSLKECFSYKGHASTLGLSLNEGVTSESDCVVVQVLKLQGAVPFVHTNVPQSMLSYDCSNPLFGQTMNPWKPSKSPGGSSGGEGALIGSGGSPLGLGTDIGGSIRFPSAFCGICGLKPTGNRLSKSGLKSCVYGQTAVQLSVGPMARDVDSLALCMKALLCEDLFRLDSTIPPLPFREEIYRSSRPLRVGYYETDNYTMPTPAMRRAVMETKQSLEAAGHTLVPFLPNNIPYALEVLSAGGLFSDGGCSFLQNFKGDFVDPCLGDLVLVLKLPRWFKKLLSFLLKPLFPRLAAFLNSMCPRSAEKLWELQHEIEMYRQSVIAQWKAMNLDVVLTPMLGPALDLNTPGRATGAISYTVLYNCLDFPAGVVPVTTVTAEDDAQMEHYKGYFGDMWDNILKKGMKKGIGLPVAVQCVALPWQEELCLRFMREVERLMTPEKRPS

For the compound `CC(=O)N(C)c1cnn(C(=O)N2CCC3(CC2)CN(Cc2ccc(N4CCCC4)cc2)C3)c1` [Example 25, N-methyl-N-(1-(2-(4-(pyrrolidin-1-yl)benzyl)-2,7-diazaspiro[3.5]nonane-7-carbonyl)-1H-pyrazol-4-yl)acetamide], the results for the inhibition at 1 µM at MAGL and at FAAH were no less than 75% and 50 to 75%, respectively.

What is called IC50 is the midpoint of a concentration-inhibition curve. Lower therefore signals higher potency. Consider `CC(=O)N(C)c1cnn(C(=O)N2CCC3(CC2)CN(Cc2ccc(C(F)(F)F)cc2)C3)c1` [Example 26, N-methyl-N-(1-(2-(4-(trifluoromethyl)benzyl)-2,7-diazaspiro[3.5]nonane-7-carbonyl)-1H-pyrazol-4-yl)acetamide], for which, on MAGL, the IC50 was no more than 100 nM and the inhibition at 1 µM was no less than 75%. Besides, at FAAH, the half-maximal inhibitory concentration (IC50) lay within 100 to 1000 nM and the inhibition at 1 µM is no less than 75%.

With `CC(=O)N(C)c1cnn(C(=O)N2CCC3(CC2)CN(Cc2ccc(N4CCOCC4)cc2)C3)c1` [Example 27, N-methyl-N-(1-(2-(4-morpholinobenzyl)-2,7-diazaspiro[3.5]nonane-7-carbonyl)-1H-pyrazol-4-yl)acetamide], the inhibition at 1 µM at MAGL was no less than 75%; on FAAH, 0 to 25%.

As to `CC(=O)N(C)c1cnn(C(=O)N2CCC3(CC2)CN(Cc2ccc(N4CCOCC4)cc2Cl)C3)c1` [Example 28, N-(1-(2-(2-chloro-4-morpholinobenzyl)-2,7-diazaspiro[3.5]nonane-7-carbonyl)-1H-pyrazol-4-yl)-N-methylacetamide], the inhibition at 1 µM at MAGL and on FAAH was no less than 75% in each case.

Regarding `CC(=O)N(C)c1cnn(C(=O)N2CCC3(CC2)CN(Cc2ccc(N4CCOCC4)cc2C)C3)c1` [Example 29, N-methyl-N-(1-(2-(2-methyl-4-morpholinobenzyl)-2,7-diazaspiro[3.5]nonane-7-carbonyl)-1H-pyrazol-4-yl)acetamide], the inhibition at 1 µM on MAGL is no less than 75%; on FAAH, 25 to 50%.

With `CC(=O)N(C)c1cnn(C(=O)N2CCC3(CC2)CN(Cc2cccc(N4CCCC4)c2)C3)c1` [Example 30, N-methyl-N-(1-(2-(3-(pyrrolidin-1-yl)benzyl)-2,7-diazaspiro[3.5]nonane-7-carbonyl)-1H-pyrazol-4-yl)acetamide], the inhibition at 1 µM at MAGL and at FAAH was no less than 75% in each case.

Regarding `CC(=O)N(C)c1cnn(C(=O)N2CCC3(CC2)CN(Cc2ccc(F)cc2)C3)c1` [Example 31, N-(1-(2-(4-fluorobenzyl)-2,7-diazaspiro[3.5]nonane-7-carbonyl)-1H-pyrazol-4-yl)-N-methylacetamide], the inhibition at 1 µM at MAGL is no less than 75%; on FAAH, 25 to 50%.

Turning to `CC(=O)N(C)c1cnn(C(=O)N2CCC3(CC2)CN(Cc2ccc(C)cc2)C3)c1` [Example 32, N-methyl-N-(1-(2-(4-methylbenzyl)-2,7-diazaspiro[3.5]nonane-7-carbonyl)-1H-pyrazol-4-yl)acetamide], the inhibition at 1 µM at MAGL is no less than 75%; at FAAH, 25 to 50%.

`COc1ccc(CN2CC3(CCN(C(=O)n4cc(N(C)C(C)=O)cn4)CC3)C2)cc1` [Example 33, N-(1-(2-(4-methoxybenzyl)-2,7-diazaspiro[3.5]nonane-7-carbonyl)-1H-pyrazol-4-yl)-N-methylacetamide]: the results for the inhibition at 1 µM on MAGL and on FAAH were 50 to 75% and 25 to 50%, respectively.

As for `CC(=O)N(C)c1cnn(C(=O)N2CCC3(CC2)CN(Cc2cccc(Cl)c2)C3)c1` [Example 34, N-(1-(2-(3-chlorobenzyl)-2,7-diazaspiro[3.5]nonane-7-carbonyl)-1H-pyrazol-4-yl)-N-methylacetamide], on MAGL, the IC50 was no more than 100 nM and the inhibition at 1 µM is no less than 75%. Further, on FAAH, the IC50 was no more than 100 nM and the inhibition at 1 µM is no less than 75%.

Consider `CC(=O)N(C)c1cnn(C(=O)N2CCC3(CC2)CN(Cc2cccc(F)c2)C3)c1` [Example 35, N-(1-(2-(3-fluorobenzyl)-2,7-diazaspiro[3.5]nonane-7-carbonyl)-1H-pyrazol-4-yl)-N-methylacetamide], for which the inhibition at 1 µM at MAGL and on FAAH was no less than 75% throughout.

Take `CC(=O)N(C)c1cnn(C(=O)N2CCC3(CC2)CN(Cc2cccc(C)c2)C3)c1` [Example 36, N-methyl-N-(1-(2-(3-methylbenzyl)-2,7-diazaspiro[3.5]nonane-7-carbonyl)-1H-pyrazol-4-yl)acetamide]: the inhibition at 1 µM at MAGL and on FAAH was no less than 75% in each case.

For `COc1cccc(CN2CC3(CCN(C(=O)n4cc(N(C)C(C)=O)cn4)CC3)C2)c1` [Example 37, N-(1-(2-(3-methoxybenzyl)-2,7-diazaspiro[3.5]nonane-7-carbonyl)-1H-pyrazol-4-yl)-N-methylacetamide], the inhibition at 1 µM at MAGL and at FAAH was 50 to 75% throughout.

In the case of `CC(=O)N(C)c1cnn(C(=O)N2CCC3(CC2)CN(Cc2cccc(C(F)(F)F)c2)C3)c1` [Example 38, N-methyl-N-(1-(2-(3-(trifluoromethyl)benzyl)-2,7-diazaspiro[3.5]nonane-7-carbonyl)-1H-pyrazol-4-yl)acetamide], at MAGL, the IC50 was no more than 100 nM and the inhibition at 1 µM was no less than 75%. Further, on FAAH, the half-maximal inhibitory concentration (IC50) was in the range of 100 to 1000 nM and the inhibition at 1 µM was no less than 75%.

Take `CC(=O)N(C)c1cnn(C(=O)N2CCC3(CC2)CN(Cc2cccc(N4CCOCC4)c2)C3)c1` [Example 39, N-methyl-N-(1-(2-(3-morpholinobenzyl)-2,7-diazaspiro[3.5]nonane-7-carbonyl)-1H-pyrazol-4-yl)acetamide]: the figures for the inhibition at 1 µM at MAGL and at FAAH were no less than 75% and 25 to 50%, respectively.

For the compound `CC(=O)N(C)c1cnn(C(=O)N2CCC3(CC2)CN(Cc2ccccc2Cl)C3)c1` [Example 40, N-(1-(2-(2-chlorobenzyl)-2,7-diazaspiro[3.5]nonane-7-carbonyl)-1H-pyrazol-4-yl)-N-methylacetamide], the concentration for half-maximal inhibition (IC50) is no more than 100 nM at MAGL and 100 to 1000 nM on FAAH. The inhibition at 1 µM at MAGL and at FAAH was no less than 75% throughout.

As to `CC(=O)N(C)c1cnn(C(=O)N2CCC3(CC2)CN(Cc2ccccc2F)C3)c1` [Example 41, N-(1-(2-(2-fluorobenzyl)-2,7-diazaspiro[3.5]nonane-7-carbonyl)-1H-pyrazol-4-yl)-N-methylacetamide], the values for the inhibition at 1 µM on MAGL and at FAAH were no less than 75% and 50 to 75%, respectively.

Consider `CC(=O)N(C)c1cnn(C(=O)N2CCC3(CC2)CN(Cc2ccccc2C)C3)c1` [Example 42, N-methyl-N-(1-(2-(2-methylbenzyl)-2,7-diazaspiro[3.5]nonane-7-carbonyl)-1H-pyrazol-4-yl)acetamide], for which the inhibition at 1 µM at MAGL and on FAAH was no less than 75% each time.

Take `COc1ccccc1CN1CC2(CCN(C(=O)n3cc(N(C)C(C)=O)cn3)CC2)C1` [Example 43, N-(1-(2-(2-methoxybenzyl)-2,7-diazaspiro[3.5]nonane-7-carbonyl)-1H-pyrazol-4-yl)-N-methylacetamide]: the inhibition at 1 µM is no less than 75% at MAGL and 0 to 25% on FAAH.

On to `CC(=O)N(C)c1cnn(C(=O)N2CCC3(CC2)CN(Cc2ccccc2C(F)(F)F)C3)c1` [Example 44, N-methyl-N-(1-(2-(2-(trifluoromethyl)benzyl)-2,7-diazaspiro[3.5]nonane-7-carbonyl)-1H-pyrazol-4-yl)acetamide], for which, at MAGL, the IC50 was no more than 100 nM and the inhibition at 1 µM was no less than 75%. On FAAH, the half-maximal inhibitory concentration (IC50) was no more than 100 nM and the inhibition at 1 µM is no less than 75%.
